Results taken from the supplement of paper PMC10307832.

How the values were obtained:
Assay in all cases: relative viability (nuclei count vs DMSO), 5 days (fraction); higher = more cells survive
[1] = compound: CCn1c(-c2nonc2N)nc2cnc(Oc3cccc(NC(=O)c4ccc(OCCN5CCOCC5)cc4)c3)cc21 + CC1(C)CCC(c2ccc(Cl)cc2)=C(CN2CCN(c3ccc(C(=O)NS(=O)(=O)c4ccc(N[C@H](CCN5CCOCC5)CSc5ccccc5)c(S(=O)(=O)C(F)(F)F)c4)cc3)CC2)C1 [Navitoclax] (partner 0.5 µM)
In short: (§1)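 Lung cancer cell lines were pin-tool dosed in 1536-well plates on the day after seeding, with either a lone drug or a fixed anchor-drug dose plus five library-drug doses (not always all listed) in √10 steps. Nuclei were counted on 4× images after 5 days. Relative viability is the ratio of treated-well to vehicle-well nuclei counts, with each value a median of duplicate plates.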

Mirin + Palbociclib = compound: N=C1NC(=O)/C(=C/c2ccc(O)cc2)S1 [Mirin] + CC(=O)c1c(C)c2cnc(Nc3ccc(N4CCNCC4)cn3)nc2n(C2CCCC2)c1=O [Palbociclib] (partner 0.5 µM)
In short: as §1

Mirin + Luminespib = compound: N=C1NC(=O)/C(=C/c2ccc(O)cc2)S1 [Mirin] + CCNC(=O)c1noc(-c2cc(C(C)C)c(O)cc2O)c1-c1ccc(CN2CCOCC2)cc1 [Luminespib] (partner 0.01 µM)
In short: as §1

Mirin + Lapatinib = compound: N=C1NC(=O)/C(=C/c2ccc(O)cc2)S1 [Mirin] + CS(=O)(=O)CCNCc1ccc(-c2ccc3ncnc(Nc4ccc(OCc5cccc(F)c5)c(Cl)c4)c3c2)o1 [Lapatinib] (partner 2 µM)
In short: as §1

Cell Line	relative viability ([1]; first compound 0.04 µM)	relative viability ([1]; first compound 0.1265 µM)	relative viability ([1]; first compound 0.4 µM)	relative viability ([1]; first compound 1.265 µM)	relative viability ([1]; first compound 4 µM)	relative viability (Mirin + Palbociclib; first compound 0.25 µM)	relative viability (Mirin + Palbociclib; first compound 0.7906 µM)	relative viability (Mirin + Palbociclib; first compound 2.5 µM)	relative viability (Mirin + Palbociclib; first compound 7.906 µM)	relative viability (Mirin + Palbociclib; first compound 25 µM)	relative viability (Mirin + Luminespib; first compound 0.25 µM)	relative viability (Mirin + Luminespib; first compound 0.7906 µM)	relative viability (Mirin + Luminespib; first compound 2.5 µM)	relative viability (Mirin + Luminespib; first compound 7.906 µM)	relative viability (Mirin + Luminespib; first compound 25 µM)	relative viability (Mirin + Lapatinib; first compound 0.25 µM)	relative viability (Mirin + Lapatinib; first compound 0.7906 µM)	relative viability (Mirin + Lapatinib; first compound 2.5 µM)	relative viability (Mirin + Lapatinib; first compound 7.906 µM)	relative viability (Mirin + Lapatinib; first compound 25 µM)
LXF-289	1.05	1.05	1.09	0.991	1.06	0.585	0.648	0.591	0.623	0.701	0.662	0.689	0.651	0.666	0.634	0.906	1.01	0.91	1.04	1.04
NCI-H23	1.18	0.956		0.806	0.651	0.548		0.519	0.49	0.524	0.21	0.186	0.2	0.234	0.186	1.17		1.13	0.936	0.742
NCI-H322M	1.39	1.16	1.28	1.26	1.32	0.466	0.497	0.521	0.553	0.522	0.924	0.745	0.913	1.05	0.583	0.569	0.831	0.929	0.683	0.705
NCI-H460	1.07	1.01	1.13	0.393	0.26	0.18	0.148	0.157	0.157	0.123	0.0342	0.0263	0.0361	0.0242	0.0254	1.05	1.01	1.06	0.836	0.631
NCI-H520	1.21	1.13	0.955	0.555	0.385	0.214	0.267	0.245	0.188	0.138	0.234	0.241	0.225	0.235	0.211	0.97	0.605	0.857	0.551	0.391
NCI-H647	1.06	0.828	0.89	0.517	0.595	0.395	0.4	0.381	0.374	0.345	0.115	0.11	0.17	0.241	0.09	1.31	1.09	1.07	1.1	0.427
NCI-H727	0.476	0.564	0.46	0.441	0.382	0.707	0.782	0.594	0.615	0.636	0.515	0.307	0.453	0.265	0.316	0.995	0.714	0.96	0.672	0.851
NCI-H838	0.982	0.686	0.569	0.354	0.294	0.25	0.232	0.232	0.234	0.236	0.316	0.332	0.285	0.229	0.396	1.15	0.454	1.07	0.898	0.658
NCI-H1355	0.917	0.946	1.01	0.952	0.968	0.395	0.427	0.41	0.412	0.443	0.724	0.855	0.764	0.689	0.548	1.01	0.961	1.01	1.1	1.11
NCI-H1395	1.19	1.02	0.982	0.534	0.729	0.588		0.594	0.69	0.581	0.687	0.449	0.662	0.649	0.622	0.947		1.08	0.934	0.853
NCI-H1437	1.1	1.09	1.02	0.747	0.607	0.358	0.32	0.292	0.318	0.327	1.13	1.11	1.08	1.09	1.11	0.912	0.741	0.776	0.762	0.394
NCI-H1650	1.79	1.31	1.34	1.08	1.05	0.362	0.346	0.336	0.369	0.263	0.183	0.176	0.175	0.18	0.179	0.774	0.501	0.891	0.708	0.465
NCI-H1651	1.17	1.14	1.05	0.925	0.471	0.477	0.561	0.53	0.497	0.516	0.851	0.694	0.833	0.854	0.784	0.882	0.832	0.938	0.711	0.824
NCI-H1666	1.09	1.28	1.07	0.648	0.495	0.684	0.665	0.64	0.627	0.662	1.03	1.13	1.01	0.936	0.949	0.683	0.381	0.638	0.444	0.443
NCI-H1734	1.11	0.81	0.684	0.564	0.345	0.349	0.364	0.356	0.32	0.344	0.191	0.182	0.21	0.208	0.217	1.02	0.906	1.06	0.941	0.905
NCI-H1755	1.06	1.01	0.944	0.992	0.996	0.469	0.449	0.403	0.478	0.532	0.396	0.519	0.497	0.407	0.358	1.03	0.951	1.05	1.11	1.18

Cell Line	relative viability ([1]; first compound 0.04 µM)	relative viability ([1]; first compound 0.1265 µM)	relative viability ([1]; first compound 0.4 µM)	relative viability ([1]; first compound 1.265 µM)	relative viability ([1]; first compound 4 µM)	relative viability (Mirin + Palbociclib; first compound 0.25 µM)	relative viability (Mirin + Palbociclib; first compound 0.7906 µM)	relative viability (Mirin + Palbociclib; first compound 2.5 µM)	relative viability (Mirin + Palbociclib; first compound 7.906 µM)	relative viability (Mirin + Palbociclib; first compound 25 µM)	relative viability (Mirin + Luminespib; first compound 0.25 µM)	relative viability (Mirin + Luminespib; first compound 0.7906 µM)	relative viability (Mirin + Luminespib; first compound 2.5 µM)	relative viability (Mirin + Luminespib; first compound 7.906 µM)	relative viability (Mirin + Luminespib; first compound 25 µM)	relative viability (Mirin + Lapatinib; first compound 0.25 µM)	relative viability (Mirin + Lapatinib; first compound 0.7906 µM)	relative viability (Mirin + Lapatinib; first compound 2.5 µM)	relative viability (Mirin + Lapatinib; first compound 7.906 µM)	relative viability (Mirin + Lapatinib; first compound 25 µM)
NCI-H1792	0.732	0.58		0.348	0.518	0.561	0.714	0.664		0.608	0.34	0.461	0.438		0.423	0.891	0.814	0.97	0.829	0.942
NCI-H1793	0.315	0.38	0.305	0.191	0.238	0.331		0.349	0.335	0.339	0.572		0.235	0.196	0.171	0.899	0.413	0.914	0.881	0.652
NCI-H1915	0.829	0.797	0.764	0.575	0.762	0.502	0.48	0.503	0.504	0.438	0.776		0.783	0.676	0.77	0.95		0.997	0.853	0.826
NCI-H1944	1.03	1.03		1.02	0.97	0.315	0.325	0.328	0.287	0.226	0.679	0.751	0.694	0.543	0.359	0.904		0.774	0.747	0.486
NCI-H1975	0.827	0.818	0.763	0.372	0.286	0.7	0.57	0.555	0.606	0.583	0.201	0.254	0.16	0.306	0.125	1.12	0.785	0.883	1.02	0.757
NCI-H1993	0.795	0.941		0.902	0.787	0.614	0.281	0.586	0.524	0.543	0.777		0.778	0.729	0.734	0.856	0.784	0.887	0.976	0.81
NCI-H2009	1.09	0.971	0.999	0.561	0.384	0.221	0.262	0.162	0.202	0.238	0.983	1.15	1.02	0.925	1.07	0.883	0.469	1.02	0.847	0.993
NCI-H2023	1.18	0.963	1.04	0.773	0.688	0.386	0.368	0.409	0.349	0.315	0.746	0.862	0.804	0.763	0.64	1.08	0.301	0.752	0.876	0.585
NCI-H2085	1.39	1.08	1.02	0.937	1.01	0.458	0.47	0.495	0.562	0.486	0.422	0.343	0.46	0.473	0.453	0.828	0.791	0.823	0.807	0.628
NCI-H2087		0.789	0.962	0.785	0.598	0.227	0.297	0.249	0.133	0.318	0.184	0.135	0.169	0.161	0.158	1.09	1.07	0.91	1.12	1.14
NCI-H2126	0.87	0.822	0.825	0.917	0.84	0.342	0.361	0.332	0.394	0.396	0.86	0.881	0.934	0.9	0.898	0.77	0.735	0.765	0.717	0.621
NCI-H2170	0.392	0.602	0.539	0.626	0.633	0.415	0.379	0.374	0.361	0.436	0.828	0.656	0.934	0.693	0.663	0.273	0.223	0.278	0.324	0.274
NCI-H2228	0.759	0.841	1.07	0.927	0.833	0.863	0.704	0.799	0.647	0.622	0.144	0.166	0.159	0.129	0.114	0.88	1	1.51	1.12	0.921
NCI-H2347	0.967	0.811	0.858	0.365	0.502	0.444	0.465	0.506	0.422	0.436	0.33	0.295	0.372	0.409	0.575	0.915	0.944	0.981	0.956	0.966
NCI-H2405	1.16	0.361	0.367	0.183	0.144	0.512		0.526	0.568	0.511	0.624	0.586	0.664	0.702	0.649	1.11	1.12	1.02	1.05	1.22
NCI-H3122	1.02	1.03	1.05	0.974	0.979	0.192	0.197	0.199	0.166	0.165	0.0805	0.0865	0.0952	0.0621	0.0807	1.04	1.02	1.05	1.05	1.18
